Target: recombinant human PAI-1 (Homo sapiens, UniProt P05121)
Experiment: biochemical
Conditions: read-out: Inhibition Rate of PAI-1 Activity (%)
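Also: PAI-1 preincubated with compound, then two-chain tPA added, residual tPA activity read with fluorogenic Pyr-Gly-Arg-MCA substrate after 30 min at room temperature.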

Chain of recombinant human PAI-1 (P05121 24-402): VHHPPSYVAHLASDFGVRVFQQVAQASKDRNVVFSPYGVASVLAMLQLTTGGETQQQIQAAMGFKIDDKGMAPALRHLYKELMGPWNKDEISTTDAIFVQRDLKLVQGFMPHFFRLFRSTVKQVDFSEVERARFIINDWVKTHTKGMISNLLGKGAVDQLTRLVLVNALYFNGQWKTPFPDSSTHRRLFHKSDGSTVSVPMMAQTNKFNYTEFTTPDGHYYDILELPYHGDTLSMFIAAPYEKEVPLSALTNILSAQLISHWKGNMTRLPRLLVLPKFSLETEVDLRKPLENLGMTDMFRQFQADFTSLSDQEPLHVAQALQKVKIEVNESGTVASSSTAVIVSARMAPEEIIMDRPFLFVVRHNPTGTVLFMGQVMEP

| Structure (SMILES) | inhibition at 5 µM | inhibition at 10 µM | inhibition at 25 µM | inhibition at 0.5 µM | inhibition at 1 µM |
| --- | --- | --- | --- | --- | --- |
| O=C(O)C(=O)N(CCCCc1ccccc1)c1ccc(-c2ccc(OC(F)(F)F)cc2)cc1 [Compound 225] | 27% | 50% | 88% |  |  |
| O=C(O)C(=O)N(CCCCCc1ccccc1)c1ccc(-c2ccc(OC(F)(F)F)cc2)cc1 [Compound 228] | 45% | 71% | 95% |  |  |
| CCCOc1ccc(N(CCCc2ccccc2)C(=O)C(=O)O)cc1-c1ccc(OC(F)(F)F)cc1 [Compound 229] | 48% | 80% | 94% |  |  |
| CCCOc1ccc(N(CCCc2ccccc2)C(=O)C(=O)O)c(-c2ccc(OC(F)(F)F)cc2)c1 [Compound 232] | 52% | 82% | 96% |  |  |
| CCCOc1ccc(-c2ccc(OC(F)(F)F)cc2)cc1N(CCCc1ccccc1)C(=O)C(=O)O [Compound 234] | 59% | 83% | 96% |  |  |
| CCCCOc1ccc(-c2ccc(OC(F)(F)F)cc2)cc1N(CCCc1ccccc1)C(=O)C(=O)O [Compound 235] | 66% | 89% | 93% |  |  |
| CCCOc1ccc(-c2ccc(OC(F)(F)F)cc2)cc1N(CCCCc1ccccc1)C(=O)C(=O)O [Compound 236] | 61% | 86% | 95% |  |  |
| CCC(CC)Oc1ccc(N(CCCc2ccccc2)C(=O)C(=O)O)c(-c2ccc(OC(F)(F)F)cc2)c1 [Compound 237] | 75% | 92% |  |  |  |
| CC(C)Oc1ccc(N(CCCc2ccccc2)C(=O)C(=O)O)c(-c2ccc(OC(F)(F)F)cc2)c1 [Compound 239] | 43% | 80% | 98% |  |  |
| CCCOc1ccc(N(CCCCc2ccccc2)C(=O)C(=O)O)cc1-c1ccc(OC(F)(F)F)cc1 [Compound 240] | 62% | 91% | 95% |  |  |
| CCCCCOc1ccc(-c2ccc(OC(F)(F)F)cc2)cc1N(CCCCCc1ccccc1)C(=O)C(=O)O [Compound 242] | 88% | 94% |  |  |  |
| O=C(O)C(=O)N(CCCCc1ccccc1)c1ccc(N2CCOCC2)c(-c2ccc(OC(F)(F)F)cc2)c1 [Compound 243] | 42% | 64% | 89% |  |  |
| CCCCCOc1ccc(N(CCCCc2ccccc2)C(=O)C(=O)O)cc1-c1ccc(OC(F)(F)F)cc1 [Compound 244] | 71% | 91% |  |  |  |
| CCCCCCOc1ccc(-c2ccc(OC(F)(F)F)cc2)cc1N(CCCCc1ccccc1)C(=O)C(=O)O [Compound 245] | 93% | 97% |  |  |  |
| Cc1cc(N(C)C)c(-c2ccc(OC(F)(F)F)cc2)cc1N(CCCCc1ccccc1)C(=O)C(=O)O [Compound 246] | 79% | 96% |  |  |  |
| O=C(O)C(=O)N(CCCCc1ccccc1)c1ccc(N2CCCCC2)c(-c2ccc(OC(F)(F)F)cc2)c1 [Compound 247] | 93% | 99% |  |  |  |
| CC(C)Oc1ccc(N(CCCCc2ccccc2)C(=O)C(=O)O)cc1-c1ccc(OC(F)(F)F)cc1 [Compound 248] | 60% | 89% | 96% |  |  |
| CC(C)(C)Oc1ccc(N(CCCCc2ccccc2)C(=O)C(=O)O)cc1-c1ccc(OC(F)(F)F)cc1 [Compound 249] | 68% | 89% |  |  |  |
| O=C(O)C(=O)N(CCCCc1ccccc1)c1ccc(N2CCCCC2=O)c(-c2ccc(OC(F)(F)F)cc2)c1 [Compound 250] | 83% | 78% |  |  |  |
| CCCCCCN(C(=O)C(=O)O)c1ccc(Oc2ccc(OC(F)(F)F)cc2)cc1 [Compound 252] | 3% | 6% | 34% |  |  |
| O=C(O)C(=O)N(c1ccc(-c2ccc(OC(F)(F)F)cc2)cc1)C1CCCCC1 [Compound 253] | 9% | 16% | 36% |  |  |
| CCCCCN(C(=O)C(=O)O)c1ccc(-c2ccc(OC(F)(F)F)cc2)cc1 [Compound 254] | 3% | 9% | 31% |  |  |
| CC(C)(C)CN(C(=O)C(=O)O)c1ccc(-c2ccc(OC(F)(F)F)cc2)cc1 [Compound 255] | 2% | 8% | 23% |  |  |
| O=C(O)CCc1cc(OCc2ccc(OC(F)(F)F)cc2)ccc1OCc1ccc(OC(F)(F)F)cc1 [Compound 404] | 14% | 31% | 84% |  |  |

| Structure (SMILES) | inhibition at 5 µM | inhibition at 10 µM | inhibition at 25 µM | inhibition at 0.5 µM | inhibition at 1 µM |
| --- | --- | --- | --- | --- | --- |
| CC(C)(C)c1ccc(COc2cc(/C=C/C(=O)O)cc(Oc3ccc(OC(F)(F)F)cc3)c2)cc1 [Compound 409] | 26% | 59% | 97% |  |  |
| CC(C)(C)c1ccc(COc2cc(CCC(=O)O)cc(Oc3ccc(OC(F)(F)F)cc3)c2)cc1 [Compound 410] | 37% | 71% | 98% |  |  |
| CC(C)(C)c1ccc(COc2ccc(Nc3ccc(OC(F)(F)F)cc3)cc2CCC(=O)O)cc1 [Compound 412] | 22% | 46% | 92% |  |  |
| CC(C)(C)c1ccc(COc2ccc(OCc3ccc(OC(F)(F)F)cc3)cc2/C=C/C(=O)O)cc1 [Compound 413] | 38% | 66% | 84% |  |  |
| CC(C)(C)c1ccc(COc2ccc(OCc3ccc(OC(F)(F)F)cc3)cc2CCC(=O)O)cc1 [Compound 414] | 33% | 67% | 96% |  |  |
| CN(c1ccc(OC(F)(F)F)cc1)c1ccc(OCc2ccc(C(C)(C)C)cc2)c(CCC(=O)O)c1 [Compound 417] | 44% | 79% | 98% |  |  |
| CC(C)(Nc1cc(-c2ccc(OC(F)(F)F)cc2)ccc1OCc1ccc(C(C)(C)C)cc1)C(=O)O [Compound 420] | 42% | 64% | 83% |  |  |
| CC(C)(C)c1ccc(-c2ccc(Oc3ccc(-c4ccc(OC(F)(F)F)cc4)cc3/C=C/C(=O)O)c(CCC(=O)O)c2)cc1 [Compound 540] | 75% | 91% | 91% |  |  |
| CC(C)(C)c1ccc(-c2ccc(Oc3ccc(-c4ccc(OC(F)(F)F)cc4)cc3CCC(=O)O)c(CCC(=O)O)c2)cc1 [Compound 541] | 77% | 93% | > 99% |  |  |
| CC(C)(C)c1ccc(Oc2ccc(-c3ccc(OC(F)(F)F)cc3)cc2CCC(=O)O)c(CCC(=O)O)c1 [Compound 542] | 67% |  |  | 0% | 14% |
| CC(C)(C)c1ccc(COc2cc(-c3ccc(OC(F)(F)F)cc3)cc(O)c2OCC(=O)O)cc1 [Compound 546] | 61% |  |  | 4% | 14% |
| CC(C)(C)c1ccc(CN(C(=O)CCC(=O)O)c2ccc(-c3ccc(OC(F)(F)F)cc3)cc2)cc1 [Compound 609] | 38% | 69% | > 99% |  |  |
| CC(C)(C)c1ccc(CN(C(=O)C(=O)O)c2ccc(OCc3ccc(OC(F)(F)F)cc3)cc2)cc1 [Compound 616] | 49% | 83% | 96% |  |  |
| CC(C)(C)c1ccc(CN(C(=O)C(=O)O)c2cccc(OCc3ccc(OC(F)(F)F)cc3)c2)cc1 [Compound 619] | 48% | 83% | 92% |  |  |
| CC(C)(C)c1ccc(CN(C(=O)C(=O)O)c2ccccc2OCc2ccc(OC(F)(F)F)cc2)cc1 [Compound 620] | 41% | 77% | 95% |  |  |
| CC(C)(C)c1ccc(CN(C(=O)C(=O)O)c2ccc(Sc3ccc(OC(F)(F)F)cc3)cc2)cc1 [Compound 621] | 67% | 95% | 91% |  |  |
| CC(C)(C)c1ccc(CN(C(=O)C(=O)O)c2ccc(OCc3ccc(OC(F)(F)F)cc3)c(OCc3ccc(OC(F)(F)F)cc3)c2)cc1 [Compound 622] | 44% | 72% | 88% |  |  |
| CN(C(=O)C(=O)O)c1ccc(OCc2ccc(OC(F)(F)F)cc2)c(OCc2ccc(OC(F)(F)F)cc2)c1 [Compound 623] | 22% | 41% | 87% |  |  |
| Cc1ccc(N(Cc2ccc(C(C)(C)C)cc2)C(=O)C(=O)O)cc1OCc1ccc(OC(F)(F)F)cc1 [Compound 625] | 59% | 92% | 91% |  |  |
| CC(C)(C)c1ccc(CN(C(=O)C(=O)O)c2ccc(Nc3ccc(OC(F)(F)F)cc3)cc2)cc1 [Compound 626] | 42% | 77% | 97% |  |  |
| CC(C)(C)c1ccc(CN(C(=O)C(=O)O)c2ccc(Cl)c(OCc3ccc(OC(F)(F)F)cc3)c2)cc1 [Compound 629] | 62% | 92% | 88% |  |  |
| CC(C)(C)c1ccc(CN(C(=O)C(=O)O)c2ccc(SCc3ccc(OC(F)(F)F)cc3)cc2)cc1 [Compound 630] | 56% | 89% | 88% |  |  |
| CC(C)(C)c1ccc(CN(C(=O)C(=O)O)c2ccccc2Sc2ccc(OC(F)(F)F)cc2)cc1 [Compound 631] | 58% | 86% | 86% |  |  |

— EP2272817A1, “PAI-1 INHIBITOR” (Institute of Medicinal Molecular Design, Inc., priority 2008, dated 2009)
